The source of these data is patent US11300567B2, “Methods and compositions for protein purification and enzyme reaction” (THE REGENTS OF THE UNIVERSITY OF CALIFORNIA, priority 2015, dated 2022).

Entries after “also recorded” stand apart in the source; their conditions may differ.

What all share (format): biochemical
Series [1] is described as follows: Alkaline phosphatase VFD acceleration, crowding and centrifuge control (Example 4). The method, then:
The enzyme-substrate solution (alkaline phosphatase and p-nitrophenol phosphate) was subjected to centrifugation in a bench top centrifuge at the indicated rotational speeds for 10 min. A direct comparison was then made between a VFD sample and a centrifuged sample (FIG. 12).
FAsTAP™ thermosensitive alkaline phosphatase (1.0 μL, 0.11 mM) was added to 10 mL of the diethanolamine buffer to generate an enzyme stock solution (11.1 nM). This solution was made fresh every two hours and stored on ice. Each sample was prepared by combining 0.800 mL of the enzyme stock solution and 0.500 mL of alkaline phosphatase liquid substrate system (pNPP, Sigma-Aldrich, 0.435 mM); this solution (1.3 mL) was added to either an Eppendorf or VFD sample tube. The reaction was incubated at 25° C. for 10 min unless otherwise indicated. […] The sample (100 μL) was then transferred to a 96-well micro plate reader, and the absorbance measured at 402 nm (λmax). […]
To explore the ability of VFD-mediated processing to overcome steric crowding reagents, two PEG polymers with average MW of 3350 and 8000 g/mol were added to the alkaline phosphatase-substrate solutions as follows. The appropriate quantities of PEG reagent for the indicated final concentrations were dissolved in diethanolamine buffer (total volume of 10.0 mL). […] The absorbance of the solution was then measured at 402 nm (FIG. 23).

Series [2] in a line: Immobilized alkaline phosphatase reactor: continuous flow stability. Conditions: amine-glutaraldehyde cross linker, 10 h, 1 mL min^−1. As for the experimental part: FIG. 64 depicts amine-glutaraldehyde cross-linker immobilization. Glutaraldehyde solution (90 μL in 3.00 mL PBS) was added to a freshly coated sample tube. The sample tube was then capped, and inserted into a VFD. The sample tube was rotated at 8 krpm for 30 min to create the APTES-glutaraldehyde cross linker. After rotation, the sample tube was then rinsed with PBS (6×5 mL) and inverted to remove the majority of the buffer solution. The enzyme immobilization step was then carried out as described above. Following this, the sample tube was removed from the VFD and washed with PBS (5×5 mL, pH 8.0), and inverted to remove the majority of the buffer solution. The sample tube was then loaded back into the VFD before addition of NaBH3CN (18.8 mg) in sodium acetate buffer (50 mM, pH 5.0, 3.00 mL). The sample tube was then capped and rotated at 8 krpm for 30 min. […]
The p-nitrophenol phosphate substrate solution (0.01 M in 1.0 M diethanolamine) was prepared as follows: […] of diethanolamine was added to 1.0 L of H2O, then the pH of the solution was adjusted to pH 9.8 using 5 M HCl. […] The aliquot was then analyzed via absorption spectroscopy as described above. […]

Series [3] can be described thus: Alkaline phosphatase VFD vs batch enhancement, incl. steric crowding (Example 1). Conditions: VFD 10 minutes. The method, then: In a typical experiment, fast thermosensitive alkaline phosphatase (1 μL, 1 unit, Thermo-Fisher) was added to 10 mL of diethanolamine buffer (1.0 M diethanolamine buffer with 0.50 mM magnesium chloride at pH 9.8 at 25° C.) in creating an enzyme stock solution. This solution was stored on ice and not stored for more than two hours. p-nitrophenyl phosphate liquid substrate solution (500 μL, Sigma-Aldrich) was added to a 20 mm external diameter VFD tube. To this was added alkaline phosphatase enzyme solution (800 μL) and the tube was inserted into the VFD and immediately spun to the required rotational speed. The VFD tube was rotated about its axis for 10 minutes at a 45-degree tilt angle relative to the horizontal position. At the end of this time 4 M NaOH (150 μL) was added in quenching the reaction. The sample was then added to a 96-well reader plate and the absorbance read at 401 nm (being the λmax for this system with 150 μL NaOH quench). […] From a comparison of the absorption values of the VFD vs. batch an enhancement factor can be determined (FIGS. 3A-3N).
For the steric crowding studies the following method was performed. […] The sample was then added to a 96-well reader plate and the absorbance read at 401 nm (being the λmax for this system with 150 μL NaOH quench). […] From a comparison of the absorption values of the VFD vs. batch an enhancement factor can be determined (FIGS. 3A-3N).

The nature of series [4]: Michaelis-Menton initial rates experiments, batch vs VFD (Table 1). To be noted: Batch (non-VFD). The method, then:
In determining if the observed acceleration is due to a kinetic or thermodynamic effect, the initial rates of each reaction were explored. All five enzymes were subjected typical kinetic experiments using the Michaelis-Menton model. The intrinsic values of the enzymes in a batch type and VFD system could be ascertained (Table 1).
To a 17.7 mm internal diameter VFD tube was added the substrate and enzyme in buffer at the appropriate concentration. The VFD tube was rotated about its axis at a specific rotational speed at an inclination angle of 45-degrees. After a set amount of time had elapsed, the rotation was immediately halted and the quenching reagent added. The exact same reaction was run alongside the VFD in mimicking a non-VFD process. From both the VFD processed and non-VFD processed sample an aliquot of 0.100 mL was removed and added to a 96 well plate and read at 405 nm to detect the production of p-nitrophenoxide. These measurements were carried out in triplicate and allow an accurate comparison to be drawn between VFD and non-VFD processing. For all alterations to this general protocol, assay and further experimental design, see supporting information.

Turning to alkaline phosphatase, the “enhancement of VFD-processed enzyme in high concentration of PEG 8000” value in series [1] (PEG 8000 (6.00 mg/ml, 0.75 M)) is given as “≈ 9 fold”. The “effect of centrifugation on enzymatic activity (control)” value in series [1] (centrifuged at 14 krpm (17530 g), no VFD) is on record as “no increase in enzymatic activity”. In addition, the “stability of immobilized enzyme in continuous flow” value in series [2] is reported as “stable levels of substrate conversion for 10 h; also recorded: good stability over 10 h of processing”. The “enhancement compared to a non-VFD sample, crowded solution” value in series [3] (6 mg/mL PEG8000 dopant, 45-degree tilt) is given as about 12 ×. Besides, the “enhancement in activity compared to a non-VFD sample” value in series [3] (45-degree tilt angle) is recorded as about 6 ×. Also, in series [4], the Km was found to be 484 µM, the “Vmax (Mol/sec) Batch” value was found to be 2.271e-08 mol/s and the “kcat (sec^−1) Batch” value stood at 1 s⁻¹.
